Experiment: gradient 5% acetonitrile 3 min, to 50% in 2 min, to 85% in 15 min, held 3 min, 100 µL/min
Details: column: Zorbax Extend-C18 2.1 x 50 mm; eluents: water / acetonitrile, 0.1% formic acid
Summary of the method: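 A Zorbax Extend-C18 column (2.1 × 50 mm, 1.8 μm) run at 100 μL/min with water and acetonitrile, both containing 0.1% formic acid, separated mixtures of ~100 pure standards. The HPLC was coupled to a quadrupole time-of-flight mass spectrometer operated in positive and negative ionization mode, with dead and dwell volumes of 40 μL and 900 μL. Each retention time was taken from a computationally picked adduct peak that was then manually inspected.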

Row | SMILES | RP-LC retention time [s]
1 | COCCn1cc(CCNC(=O)Nc2cccc(Cl)c2)c2cccnc21 | 762
2 | CCCNC(=O)C1CCCN(C(=O)c2[nH]c(C)c(C(=O)OC)c2C)C1 (stereo not given) | 668
3 | COC(=O)C1=CN(C)c2cc(N3CCC(Cc4ccccc4)CC3)c(F)cc2S1(=O)=O | 1100
4 | COc1cc(F)ccc1-c1ccnc2nc(Cc3ccc(F)cc3)nn12 | 905
5 | C#CCOCC1CCN(S(=O)(=O)c2ccccc2)CC1 | 866
6 | CCOc1ccc(CN2C[C@@H]3C(=O)N(CCN4CCc5ccccc5C4)C(=O)[C@@H]3C2)cc1 | 598
7 | Cc1ccc(CN2CCN(CC(=O)NCc3cccnc3)C(=O)C2=O)cc1 | 859
8 | O=C(c1n[nH]c2ccccc12)N1CCCC1c1nc(-c2ccc(F)cc2F)no1 (stereo not given) | 930
9 | O=S(=O)(c1cc(-c2nnc(C3CC3)o2)co1)N1CCCC1 | 774
10 | CCOC(=O)C1CCN(C(=O)Cn2c(=O)oc3ccc(C(=O)N4CCCC4)cc32)CC1 | 699
11 | O=C(C1CCCO1)N1CCC(CCOc2ccccc2F)CC1 (stereo not given) | 879
12 | CCN1CCc2nc(-c3ccc(F)cc3)n(CC(=O)N3CCc4ccccc4C3)c(=O)c2C1 | 635
13 | Cc1ccc(-c2noc(CN3C(=O)COc4ccc(C(C)(C)C)cc43)n2)cc1C | 1390
14 | Fc1cccc(-c2nc(-c3cn(-c4ccccc4)nn3)no2)c1 | 1040
15 | COC(=O)c1cc(OCC(=O)Nc2cc(Cl)ccc2OC)c2cc(OC)ccc2n1 | 970
16 | CC(C)CC(=O)N1CCc2cc(CNS(=O)(=O)c3ccc4c(c3)CC(=O)N4C)ccc21 | 793
17 | COc1cc(N2C=C(C#N)S(=O)(=O)c3c(F)cccc32)cc(OC)c1OC | 857
18 | Cc1ccc(C(=O)N2CCC3(CC2)N=C(c2ccc(C)cc2)NO3)cc1 | 858
19 | Oc1ccc(Cc2ccccc2Cl)c(O)c1 | 891
20 | C#CCCOC(=O)Nc1ccccc1 | 878
21 | Cc1ccc(-n2nnnc2-c2cccnc2)cc1 | 649
22 | c1cncc(-c2nc(CC3CCCNC3)no2)c1 (stereo not given) | 564
23 | CCCNC(=O)N1CC(Oc2cccc(-c3nc(-c4ccccc4)no3)c2)C1 | 1040

Row | SMILES | RP-LC retention time [s]
24 | COc1ccc(NC(=O)Cn2cnc3nc(N4CCCC(C(=O)NC5CC5)C4)sc3c2=O)cc1 (stereo not given) | 681
25 | CCCCN1CCC(CCC(=O)c2cc(Cl)c(N)cc2OC)CC1 | 726
26 | CCCn1cc(C(=O)NCCN2CCOCC2)c2cccnc21 | 586
27 | O=[N+]([O-])c1ccc2nc(N3CCNCC3)ccc2c1 | 641
28 | Cc1nn(-c2ccc(-c3ccccc3)nn2)c(C)c1S(=O)(=O)N1CCN(C(C)C)CC1 | 683
29 | Cc1cc(C2CCCN2C(=O)Nc2ccccc2C)on1 (stereo not given) | 748
30 | O=C(C1CCCC1)N1CCC(CCOc2ccncc2)CC1 | 616
31 | Cc1ccc(NC(=O)Cn2c(C)nc3c(sc4nc(-c5ccccc5)ccc43)c2=O)cc1 | 1060
32 | COc1ccc2c(c1)c(CC(=O)O)c(C)n2Cc1ccc(Cl)cc1 | 1060
33 | Cc1nn2c(nnc3c(=O)n(CCc4c[nH]c5ccc(F)cc45)ccc32)c1-c1ccc(F)cc1 | 961
34 | CN(CC1CCCO1)S(=O)(=O)c1ccc(C(=O)N2CCc3ccccc3C2)cc1 (stereo not given) | 808
35 | Cn1c(CNC(=O)CCc2cc3ccccc3[nH]c2=O)nc2ccccc21 | 601
36 | CCNC(=O)Nc1ccc2c(c1)CN(S(=O)(=O)CC)CCO2 | 660
37 | COc1ccc(S(=O)(=O)CCC(=O)Nc2sc3c(c2C(N)=O)CCC(C)C3)cc1 (stereo not given) | 793
38 | O=C(NCc1cccs1)c1ccc(N2CCCCS2(=O)=O)cc1 | 696
39 | Cc1ccc(-c2nc(-c3ccc4c(c3)nc(C)c(=O)n4C)no2)cc1F | 1150
40 | O=C(Nc1ccc2c(c1)OCCO2)c1ccc(-n2cc(CNC(=O)C3CC3)cn2)cc1 | 720
41 | COc1ccc(-c2cc3nn(CC(=O)Nc4cc(C)ccc4C)c(=O)n3c(C)n2)cc1 | 975
42 | CN1CCc2cc(C(CNS(=O)(=O)c3ccccc3F)N3CCCC3)ccc21 (stereo not given) | 573
43 | COC(=O)c1cn(CC(=O)Nc2ccc(Br)cc2F)c2nc(C)ccc2c1=O | 775
44 | CN(C)CCCc1cc(C(=O)Nc2ccc(-c3ccncc3)cc2)ccc1O | 580
45 | Cc1cc(C)c(S(=O)(=O)N2CCCCC2)c(C)c1[N+](=O)[O-] | 1040
46 | Cc1sc2cc(C(=O)NC3CC3)[nH]c2c1CN1CCCCC1 | 596

Row | SMILES | RP-LC retention time [s]
47 | COc1ccc(C)cc1S(=O)(=O)Nc1ccc(-c2cn3ccc(C)nc3n2)cc1 | 661
48 | Cc1nc(-c2cn(-c3cccc(F)c3)nn2)no1 | 805
49 | COc1cccc(-c2nc(-c3ccc4ncn(C(C)C)c4c3)no2)c1OC | 766
50 | CCn1ccc2sc(C)c(C(=O)NCc3c(C)cc(C)cc3C)c2c1=O | 982
51 | O=C(Cn1cccc1-c1nnc(C2CCC2)o1)Nc1ccc(Cl)cc1 | 968
52 | COc1ccc(S(=O)(=O)N2C[C@@H]3C[C@H](NC(=O)c4cccs4)[C@H]2C3)cc1Cl | 792
53 | Cc1ccc(-c2csc(NC(=O)c3ccc4c(c3)OCO4)n2)cc1C | 1100
54 | CCCNC(=O)C1CCN(c2cc(SCC(=O)Nc3ccc(OC)cc3)ncn2)CC1 | 692
55 | CCOc1ccc(S(=O)(=O)N2CCCC(C(=O)NC)C2)cc1C (stereo not given) | 788
56 | O=c1c(Nc2ccc(F)c(F)c2)nc2ccncc2n1Cc1ccccc1 | 775
57 | O=C(Nc1cnc(-c2ccc(F)cc2)nc1)c1ccccc1 | 961
58 | CN1CCN(CCC(=O)N2CCC(c3c[nH]c4ccccc34)(c3c[nH]c4ccccc34)CC2)CC1 | 625
59 | CCC1Oc2ccc(S(=O)(=O)N3CCC(C(=O)N4CCCC4)CC3)cc2NC1=O (stereo not given) | 730
60 | CCOc1ccc2cccc(NC(=O)c3ccccc3C(F)(F)F)c2n1 | 1200
61 | CCOc1ccc2ncc(C(=O)c3ccccc3)c(N3CCN(CC)CC3)c2c1 | 591
62 | Cc1ccccc1-c1noc(-c2cccn(CC(=O)NC3CCCC3)c2=O)n1 | 832
63 | COCCn1cc(CCNC(=O)Nc2ccc(Br)cc2)c2cccnc21 | 778
64 | CCCCNC(=O)Cn1nc2c3cc(-c4ccccc4)nn3ccn2c1=O | 807
65 | CCn1cnc(S(=O)(=O)N2CCC(C(=O)Nc3ccc(C)c(Cl)c3)CC2)c1 | 822
66 | CCn1c(CCNC(=O)c2ccc(OC)cc2)nc2cccnc21 | 607
67 | COC[C@@H]1CN(S(=O)(=O)c2cccc(F)c2)C[C@H]1c1ccncc1 | 649
68 | CCCCNC(=O)c1ccc2c(c1)CCCN2S(C)(=O)=O | 774
69 | CCS(=O)(=O)N1CC(=O)N(c2ccc(Cl)cc2)C(C)(C(=O)NCc2ccc(F)cc2)C1 (stereo not given) | 840

Row | SMILES | RP-LC retention time [s]
70 | CCc1ccc(C(=O)N2CCN(c3cc(-c4ccc(C)cc4)ncn3)CC2)cc1 | 731
71 | CC1CCCCN1S(=O)(=O)c1ccc2c(c1)CCC(=O)N2CC(=O)NCc1ccc(F)cc1 (stereo not given) | 855
72 | CCOc1ccc(-c2noc(Cn3c(=O)n(C(C)C)c(=O)c4ccccc43)n2)cc1 | 1190
73 | Cc1nnc2c(=O)n(CC(=O)NCc3ccc(C(F)(F)F)cc3)c3cccnc3n12 | 728
74 | Cn1nccc1C(=O)Nc1sc(-c2ccccc2)cc1C(N)=O | 810
75 | COC(=O)c1cc(S(=O)(=O)N2CCCC2C(=O)Nc2ccc(C(C)C)cc2)cn1C (stereo not given) | 1020
76 | Cc1ccc(C)c(NC(=O)NCCn2nnc3cc(C(=O)N(C)C)ccc32)c1 | 664
77 | Cc1nc(CSc2nnc3ccc(-c4cccnc4)nn23)cs1 | 577
78 | O=C(C1=NN(Cc2ccc(F)cc2)c2ccc(Cl)cc2S1(=O)=O)N1CCOCC1 | 873
79 | O=C(Cc1cccs1)NCC(=O)Nc1nc2ccccc2[nH]1 | 609
80 | Cc1ccc(C)c(N2CCN(c3ncc(S(=O)(=O)c4ccccc4)c(N)n3)CC2)c1 | 1230
81 | COCc1cc2nn(CC(=O)Nc3cccc(C)c3)c(=O)n2c(-c2ccccc2)n1 | 905
82 | Cc1c(C(=O)N2CCSCC2)cnn1-c1cc(-c2nc(C3CC3)no2)ccn1 | 949
83 | CC(C(=O)N1CC(n2cc(COCC3CC3)nn2)C1)c1ccccc1 (stereo not given) | 701
84 | CCn1nc(C)n2cc(S(=O)(=O)N3CCC(Cc4ccccc4)CC3)cc2c1=O | 1040
85 | COc1ccc(S(=O)(=O)N2CCC(c3noc(-c4ccc(Cl)cc4)n3)CC2)cc1 | 1140
86 | CC(C)c1nc(C2Cc3ccccc3N2C(=O)NCc2ccco2)no1 (stereo not given) | 889
87 | CCN(CCNC(=O)CCc1cc2cc(C)ccc2[nH]c1=O)Cc1ccccc1 | 648
88 | Cc1ccc2nc3sc(C(=O)N4CCN(c5ccccn5)CC4)cc3cc2c1 | 664
89 | O=C(NC1CCCCCC1)c1cc(NS(=O)(=O)c2ccc(Cl)cc2)cnc1N1CCNCC1 | 698
90 | CC(C)c1ccc(S(=O)(=O)N2CCCC2c2nc(-c3cccc(F)c3)no2)cc1 (stereo not given) | 1270

From the METLIN SMRT retention time set (Domingo-Almenara et al. 2019)
